Where two headings read alike, the source gives them in different places.
Key:
[1] = biological target: T1, alpha 2B receptor (Homo sapiens, UniProt P18089); experiment: Receptor Selection and Amplification technology (RSAT) assay, alpha 2B; assay type: cell-based; settings: for Alpha 2B intrinsic activity (relative efficacy): RSAT, number in parentheses, ratio of maximal effect to that of standard full agonist brimonidine (UK14304)
T1 construct: expressed in transfected cells; host or cells: NIH-3T3 cells
T1 sequence (P18089 1-450): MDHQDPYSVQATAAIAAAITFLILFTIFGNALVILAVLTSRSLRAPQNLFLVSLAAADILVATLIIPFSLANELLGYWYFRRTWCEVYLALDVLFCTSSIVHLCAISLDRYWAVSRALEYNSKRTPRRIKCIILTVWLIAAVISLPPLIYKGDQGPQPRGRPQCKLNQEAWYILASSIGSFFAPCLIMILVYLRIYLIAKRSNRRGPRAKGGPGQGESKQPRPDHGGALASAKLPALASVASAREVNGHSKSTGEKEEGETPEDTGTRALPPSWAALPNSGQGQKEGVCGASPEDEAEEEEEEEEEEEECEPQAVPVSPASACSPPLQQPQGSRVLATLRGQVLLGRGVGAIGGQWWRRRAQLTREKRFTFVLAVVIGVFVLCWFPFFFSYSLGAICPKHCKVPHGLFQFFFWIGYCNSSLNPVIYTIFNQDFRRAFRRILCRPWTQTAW
Description: (§1) The RSAT assay measures a receptor-mediated loss of contact inhibition that results in selective proliferation of receptor-containing cells in a mixed population of confluent cells. The increase in cell number is assessed with an appropriate transfected marker gene such as β-galactosidase, the activity of which can be easily measured in a 96-well format. Receptors that activate the G protein, Gq, elicit this response. Alpha 2 receptors, which normally couple to Gi, activate the RSAT response when coexpressed with a hybrid Gq protein that has a G; receptor recognition domain, called Gq/i5.
(§2) NIH-3T3 cells are plated at a density of 2×10^6 cells in 15 cm dishes and maintained in Dulbecco's modified Eagle's medium supplemented with 10% calf serum. One day later, cells are cotransfected by calcium phosphate precipitation with mammalian expression plasmids encoding p-SV-β-galactosidase (5-10 μg), receptor (1-2 μg) and G protein (1-2 μg). 40 μg salmon sperm DNA may also be included in the transfection mixture. Fresh media is added on the following day and 1-2 days later, cells are harvested and frozen in 50 assay aliquots. Cells are thawed and 100 μl added to 100 μl aliquots of various concentrations of drugs in triplicate in 96-well dishes. Incubations continue 72-96 hr at 37° C. After washing with phosphate-buffered saline, .E-backward.-galactosidase enzyme activity is determined by adding 200 μl of the chromogenic substrate (consisting of 3.5 mM o-nitrophenyl-beta-D-galactopyranoside and 0.5% nonidet P-40 in phosphate buffered saline), incubating overnight at 30° C. and measuring optical density at 420 nm. The absorbance is a measure of enzyme activity, which depends on cell number and reflects a receptor-mediated cell proliferation. The efficacy or intrinsic activity is calculated as a ratio of the maximal effect of the drug to the maximal effect of a standard full agonist for each receptor subtype. Brimonidine, also called UK14304, the chemical structure of which is shown below, is used as the standard agonist for the alpha 2A, alpha 2B and alpha 2C receptors.

[2] = biological target: T2, alpha 2C receptor (Homo sapiens, UniProt P18825); experiment: Receptor Selection and Amplification technology (RSAT) assay, alpha 2C; assay type: cell-based; settings: for Alpha 2C intrinsic activity (relative efficacy): RSAT, number in parentheses, ratio of maximal effect to that of standard full agonist brimonidine (UK14304)
T2 construct: expressed in transfected cells; host or cells: NIH-3T3 cells
T2 sequence (P18825 1-462): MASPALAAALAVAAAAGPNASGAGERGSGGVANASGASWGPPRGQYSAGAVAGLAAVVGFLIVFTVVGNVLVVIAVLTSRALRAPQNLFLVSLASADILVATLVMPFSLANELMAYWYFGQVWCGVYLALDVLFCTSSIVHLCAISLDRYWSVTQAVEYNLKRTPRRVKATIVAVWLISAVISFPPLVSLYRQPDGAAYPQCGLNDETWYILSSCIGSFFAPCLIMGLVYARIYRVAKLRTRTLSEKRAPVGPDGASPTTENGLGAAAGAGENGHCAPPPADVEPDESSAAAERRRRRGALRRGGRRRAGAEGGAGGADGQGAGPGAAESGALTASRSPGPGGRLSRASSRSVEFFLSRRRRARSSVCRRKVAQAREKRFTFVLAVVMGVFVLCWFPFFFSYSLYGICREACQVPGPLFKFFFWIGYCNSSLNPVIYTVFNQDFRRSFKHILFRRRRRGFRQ
Excerpt: The compounds disclosed herein are agonists of alpha 2B/2C adrenergic receptors. […] 76, pp. 308-311 (incorporated herein by reference) and is also described below. Another reference pertinent to this assay is Conklin et al. (1993) Nature 363: 274-6, also incorporated herein by reference.
as §1, §2

[3] = RSAT in transfected NIH-3T3 cells, number outside parentheses, read-out: Alpha 2B potency (EC50)
[4] = RSAT in transfected NIH-3T3 cells, number outside parentheses, read-out: Alpha 2C potency (EC50)

Row | SMILES | EC50 [1, 3] [nM] | Alpha 2B intrinsic activity (relative efficacy) [1] | EC50 [2, 4] [nM] | Alpha 2C intrinsic activity (relative efficacy) [2] | EC50 [1] [nM] | EC50 [2] [nM]
1 | Clc1cccc(C(c2ccccc2)c2c[nH]cn2)c1Cl (stereo not shown) | 6.9 | 1.19 | 332 | .40 |  | 
2 | Cc1cccc(C(c2ccccc2)c2c[nH]cn2)c1C (stereo not shown) | 1.8 | 1.23 | 91 | 1.02 |  | 
3 | Fc1c(C(c2ccccc2)c2c[nH]cn2)cccc1C(F)(F)F (stereo not shown) | 21 | .89 |  | No Data (.12) |  | 
4 | Fc1cccc(C(c2ccccc2)c2c[nH]cn2)c1F (stereo not shown) | 62 | 1.10 |  | No Data (.22) |  | 
5 | Fc1c(Cl)cccc1C(c1ccccc1)c1c[nH]cn1 (stereo not shown) | 44 | .91 |  | No Data (.21) |  | 
6 | Cc1c(Cl)cccc1C(c1ccccc1)c1c[nH]cn1 (stereo not shown) | 18 | 1.35 | 411 | .35 |  | 
7 | Cc1ccccc1C(c1ccccc1)c1c[nH]cn1 (stereo not shown) |  | .99 |  | .64 | 55 | 1900
8 | Fc1cccc(C(c2ccccc2)c2c[nH]cn2)c1 (stereo not shown) |  | 1.00 |  | No Data (.15) | 332 | 

Source: patent US8227499B2, “Substituted-aryl-(imidazole)-methyl)-phenyl compounds as subtype selective modulators of alpha 2B and/or alpha 2C adrenergic receptors” (Allergan, Inc., priority 2008, dated 2012)
